Here are results for one compound from patent publication US20080004266A1, “Method for treating proliferative disorders associated with protooncogene products” (priority 2006, published 2008).

In assay [1] the test system is Kasumi-1 cells (c-Kit N822K). The assay is described as follows: Cell survival in Kasumi-1 cells (Cell Counting Kit-8). Type of assay: cell-based, human. The note with it: 72 hours. The protocol: Kasumi-1 cells (20,000 cells/well) were cultured in 96-well plates and maintained at 37° C. for several hours. […] 17AAG and DMAG are Hsp90 inhibitors that are currently in clinical trials and are used here as positive controls for Hsp90 inhibition. […] Cell survival was measured with Cell Counting Kit-8 (Dojindo Laboratories, Cat # CK04).
Background: Tetrazolium dyes change colour on reduction, which living cells bring about.

Assay [2] has as its system NPM-ALK. The note with it: NPM-ALK expressing ALCL cells; cited from earlier work.
For a further assay, the system named is B-raf. The note with it: A375 (V600E) versus CHL cells (wild type B-raf); cited from earlier work.
For a further assay, the system named is V600E mutant B-raf. In words: Degradation of B-raf in A375 melanoma cells (Western blot). It counts as cell-based, human. The note with it: 18 hours, at 0.5 mM and 0.1 mM (so in the source). The protocol:
[…] After 18 hours, the cells were lysed with 1× lysis buffer and a western blot was perform, and B-raf was detected with anti-B-raf antibody.
(In general: Immunoblotting shows a protein as a band on a membrane.)

In the next assay the test system is MV 4-11 cells (FLT3-ITD). The assay is described as follows: Cell survival in MV-4-11 cells (Cell Counting Kit-8). Type of assay: cell-based, human. The note with it: 72 hours. Here is the method:
Human acute myelogenous leukemia (AML) cell line, MV 4-11 (ATCC #CRL-9591), was obtained from the American Type Culture Collection (ATCC; Manassas, Va., USA). Growth of this tumor cell line is dependent upon the expression of an activated form of the FLT3 tyrosine kinase receptor carrying an internal tandem duplication (ITD) mutation, which is the most common molecular defect associated with AML (K. W. Yee et al., Blood 100:2941-2949, 2002). MV 4-11 cells (20,000 cells/well) were cultured in 96-well plates and maintained at 37° C. for several hours. The cells were incubated at 37° C. for 72 hours with various concentrations of compounds of the invention, 17AAG, or DMAG. 17AAG and DMAG are Hsp90 inhibitors that are currently in clinical trials and are used here as positive controls for Hsp90 inhibition. Cell survival was measured with Cell Counting Kit-8 (Dojindo Laboratories, Cat # CK04).

The test system of the next assay is Kasumi-1 cells. The note with it: mutation in c-kit; cited from earlier work.
The subject of the next assay is Flt3 with Hsp90. The note with it: cited from earlier work.
In the next assay the test system is A375 cells (B-raf V600E). The assay is described as follows: Cell survival in A375 melanoma cells (Cell Counting Kit-8). Type of assay: cell-based, human. The note with it: 72 hours. The protocol:
Human melanoma cell line, A375 (2×10^6 cells), which contains the V600E mutation in the B-raf protein that confers constitutive […] kinase activity, was obtained from American Type Culture Collection. A375 cells (20,000 cells/well) were cultured in 96-well plates and maintained at 37° C. for several hours. The cells were incubated at 37° C. for 72 hours with various concentrations of compound 226, 17AAG or 17DMAG. 17AAG and 17DMAG are Hsp90 inhibitors that are currently in clinical trials and are used here as positive controls for Hsp90 inhibition. Cell survival was measured with Cell Counting Kit-8 (Dojindo Laboratories, Cat # CK04).

A further assay relates to phosphorylated Bcr-Abl. The assay is described as follows: Degradation of Bcr-Abl in KU812 cells (Western blot). It counts as cell-based. The note with it: 18 hours. Here is the method: KU812 chronic myeloid leukemia cells (ATCC) (2×10^6 cells), which harbor the Philadelphia chromosome that produces Bcr-Abl tyrosine kinase, were treated (0.1 μM and 1.0 μM) with either Compound 226, 17-AAG or 17-DMAG. After 18 hours, the cells were lysed with 1× lysis buffer, and a western blot was perform using anti-BCR-ABL antibody to detect phosphorylated Bcr-Abl.

Assay [3] has as its system NCI-H1975 cells (EGFR T790M and L858R). In words: Cell survival in NCI-H1975 cells (Cell Counting Kit-8). Type of assay: cell-based, human. The note with it: 72 hours. Here is the method: Human lung cancer cell line NCI-H1975 which harbors both the T790M and the L858R mutations in EGFR was obtained from American Type Culture Collection. NCI-H1975 (10,000 cells/well) were cultured in 96-well plates and maintained at 37° C. for several hours. The cells were incubated at 37° C. for 72 hours with various concentrations of compound 226 of the invention, 17AAG or DMAG. 17AAG and DMAG are Hsp90 inhibitors that are currently in clinical trials and are used here as positive controls for Hsp90 inhibition. Cell survival was measured with Cell Counting Kit-8 (Dojindo Laboratories, Cat # CK04).

In assay [4] the test system is NPM-ALK. The assay is described as follows: Degradation of NPM-ALK in Karpas-299 cells (Western blot). Type of assay: cell-based, human. The note with it: 18 hours. The protocol: Anaplastic large-cell lymphoma cells, Karpas-299 cells (the German resource center for biological material) (2×10^6 cells), which harbor the fusion protein NPM-ALK, were treated (0.05 μM, 0.1 μM and 0.5 μM) with either Compound 226 or 17-AAG. After 18 hours and the cells were lysed with 1× lysis buffer and a western blot was perform using an anti-ALK antibody to detect and phosphorylated NPM-ALK and total NPM-ALK.

In assay [5] the test system is Karpas-299 cells (NPM-ALK). In words: Cell survival in Karpas-299 cells (Cell Counting Kit-8). It counts as cell-based, human. The note with it: 72 hours. Here is the method: Growth of this tumor cell line is dependent upon the expression of the NPM-ALK fusion protein. Karpas-299 cells (20,000 cells/well) were cultured in 96-well plates and maintained at 37° C. for several hours. The cells were incubated at 37° C. for 72 hours with various concentrations of compound 226 of the invention, 17AAG, and 17DMAG. 17AAG and 17DMAG are Hsp90 inhibitors that are currently in clinical trials and are used here as positive controls for Hsp90 inhibition. Cell survival was measured with Cell Counting Kit-8 (Dojindo Laboratories, Cat # CK04).

In another assay the test system is K562 cells (Bcr-Abl). In words: Cell survival in K562 cells (Cell Counting Kit-8). Type of assay: cell-based, human. The note with it: 72 hours. The protocol:
Growth of this tumor cell line is dependent upon the expression of the Bcr-Abl fusion protein (C. Gambacarti-Passerini et al., Blood Cells Mol. Dis. 23:380-394, 1997). K562 cells (20,000 cells/well) were cultured in 96-well plates and maintained at 37° C. for several hours. […] 17AAG, DMAG, and Radicical are Hsp90 inhibitors that are currently in clinical trials and are used here as positive controls for Hsp90 inhibition. […] Cell survival was measured with Cell Counting Kit-8 (Dojindo Laboratories, Cat # CK04).

Assay [6] relates to leukemia cell that express either wild type FLT3 or FLT3-ITD mutations. The note with it: cited from earlier work.

SMILES strings stand for the structures.

For the compound `C=CCNC1=C2C[C@@H](C)C[C@H](OC)[C@H](O)[C@@H](C)/C=C(\C)[C@H](OC(N)=O)[C@@H](OC)/C=C\C=C(/C)C(=O)NC(=CC1=O)C2=O` [Compound 17AAG, 17-allylamino-17-desmethoxygeldanamycin], the IC50 (usually the concentration needed to halve the response being measured) turned out to be 685 nM in assay [1]; 35 nM in the assay on MV 4-11 cells (FLT3-ITD); 70 nM in the assay with A375 cells (B-raf V600E); 446 nM in assay [3]; 506 nM in assay [5]; 122 nM in the assay with K562 cells (Bcr-Abl). Moreover, the “cell cycle and apoptosis” value in the assay with NPM-ALK [2] was “induce cell-cycle arrest and apoptosis”. Also, in the assay on NPM-ALK [2], the “degradation of NPM-ALK” value was “increased degradation of NPM-ALK”. Moreover, the “degradation of B-raf” value in the assay on B-raf is recorded as “degraded more rapidly than in CHL cells”. Further, in the assay with V600E mutant B-raf, the “degradation of V600E mutant B-raf” value is recorded as “did not induce significant degradation”. Besides, the apoptosis entry in the assay on Kasumi-1 cells is reported as “induce apoptosis”. Besides, the “association of Flt3 with Hsp90” value with Flt3 with Hsp90 is “disrupt the association of Flt3 with Hsp90”. The results for the “degradation of phosphorylated Bcr-Abl” value with phosphorylated Bcr-Abl (0.1 μM) and in the assay with phosphorylated Bcr-Abl (1.0 μM) were “did not degrade” and “partially degraded”, respectively. Also, the “degradation of phosphorylated and total NPM-ALK” value is “no effect” in the assay on NPM-ALK [4] (0.05 μM and 0.1 μM); “partial degradation” in the assay on NPM-ALK [4] (0.5 μM). Besides, the “growth of leukemia cells” value in assay [6] is recorded as “inhibited”.
